The source of these data is patent US20230149409A1, “TREATMENT OF HUMAN PAPILLOMAVIRUS-ASSOCIATED CANCERS BY PD-L1 INHIBITORS” (priority 2021, published 2023).

Marks after values point to notes of the source that are not given here.

Test [1] has as its system advanced solid tumors (HPV-positive tumors). As to the kind of experiment: Phase 1 open-label clinical trial of Compound 1. The class given is in vivo, human. The text has this:
This study is a Phase 1, open-label, dose-finding study for Compound 1 (see Table 1, supra). Eligible participants enrolled will receive Compound 1 as an oral tablet (50-mg, 100-mg, or 400-mg) during 21-day or 28-day cycles until disease progression, unacceptable toxicity, death, withdrawal of consent, or any other reason. Continuous treatment administration may be once daily (QD) or twice daily (BID).
Following a dose escalation study to identify a pharmacological active dose, this trial will enroll up to 60 participants with HPV-positive tumors at 1 or more pharmacologically active dose (PAD) doses to further evaluate safety, efficacy, PK, and pharmacodynamic effects. A maximum of 20 participants may be enrolled per dose level. Participants must have HPV-positive tumors as determined by a local laboratory using p16 IHC, polymerase chain reaction methods, or other locally-available method to detect HPV.
Participants are eligible to be included in the study only if all of the following criteria apply: • 1. Male and female participants must be ≥ 18 years of age at the time of signing the ICF. • 2. Ability to comprehend and willingness to sign an ICF. • 3. Must be willing and able to conform to and comply with all Protocol requirements, including all scheduled visits, Protocol procedures, and the ability to swallow oral medication. • 4. Histologically confirmed advanced solid tumors with measurable lesions (per RECIST v1.1 or RANO for primary brain tumors) that are considered nonamenable to surgery or other curative treatments or procedures. […] Participants must have disease progression after treatment with available therapies that are known to confer clinical benefit or who are intolerant to or ineligible for standard treatment. • 6. Willingness to undergo a tumor biopsy to obtain tumor tissue. • 7. Eastern Cooperative Oncology Group performance status score of 0 or 1. • 8. Life expectancy > 12 weeks. • 9. Willingness to avoid pregnancy or fathering children. • 10. For the cohort participating in the extension to participants with HPV-positive solid tumors: any HPV-positive solid tumor which has received prior standard therapy.
Adult patients (≥18 years) with advanced solid tumors were enrolled into this open-label study. Patients had disease progression after standard available therapy, or were intolerant of, or ineligible for standard treatment. Measureable disease was required. A modified 3+3 dose escalation design was employed, followed by dose expansions. The primary endpoints were safety and tolerability of Compound 1, identification of a pharmacologically active dose and/or maximum tolerated dose, and confirmation of the recommended Phase 2 dose. Secondary endpoints included PK, pharmacodynamics, and efficacy as assessed by investigator-determined objective response and disease control rates (complete response (CR), partial response (PR), or stable disease (SD)).
Patients that were confirmed to have HPV+ or confirmed to be HPV- are indicated below. Patients of unknown HPV status are also indicated.

Test [2] relates to select advanced solid tumors (HPV+ carcinomas). Description: Phase 1 open-label clinical trial of Compound 30. The class given is in vivo, human. Set-up: key: complete response (CR); partial response (PR); stable disease (SD); progressive disease (PD). From the text: Two open-label, nonrandomized, global multicenter Phase 1 studies in participants with select advanced solid tumors are being conducted for Compounds 24 and 30 in Table 1 supra. In addition to the primary endpoint of determining safety, tolerability, PAD and/or maximum tolerated dose (MTD) of each compound, the studies are exploring preliminary efficacy (complete response (CR), partial response (PR), stable disease (SD), or progressive disease (PD)) in participants with select advanced cancers, including virally mediated tumors such as HPV+ carcinomas. HPV+ tumors can be determined by a local laboratory using p16 IHC, polymerase chain reaction methods, or other locally-available method to detect HPV. Results for patients having solid tumors whose HPV+ status was confirmed, suspected or negative are shown below for Compound 24 and Compound 30 in Tables 4 and 5, respectively.

The mark [3] stands for this setting: Anal, Confirmed HPV+, 400 mg BID.
Where [4] appears, read: Anal, Total (all HPV status), 400 mg BID.
Where [5] appears, read: Anal, Unknown HPV status, 400 mg BID.
Where [6] appears, read: Cervical, Confirmed HPV+, 400 mg BID.
Where [7] appears, read: Cervical, Total (all HPV status), 400 mg BID.
[8] abbreviates: Total of tumor types, Confirmed HPV+.
Where [9] appears, read: Total of tumor types, Total (all HPV status).
The mark [10] stands for this setting: Total of tumor types, Unknown HPV status.

As for `Cc1c(Nc2nccc3cc(CN4CC[C@@H](O)C4)cnc23)cccc1-c1cccc(-c2nc3cc(CN4CC[C@@H](C(=O)O)C4)cc(C#N)c3o2)c1C` [Compound 1, (R)-1-((7-cyano-2-(3′-(3-(((R)-3-hydroxypyrrolidin-1-yl)methyl)-1,7-naphthyridin-8-ylamino)-2,2′-dimethylbiphenyl-3-yl)benzo[d]oxazol-5-yl)methyl)pyrrolidine-3-carboxylic acid], the “ORR based on PR or CR” value in test [1] (14 evaluable patients, 400 mg BID or 800 mg BID, factoring in responses in patients with unknown HPV status) is “about 28.6%”. The “number of patients with PD” value was 1 in test [1] (setting [3]); 3 in test [1] (setting [4]); 2 in test [1] (setting [5]); 2 in test [1] (setting [6]); 2 in test [1] (setting [7]); 1^a in test [1] (HNSCC, Confirmed HPV-, patient received 800 mg BID). The “number of patients with PD” value in test [1] (HNSCC, Total (all HPV status)) is listed as 1; in test [1] (setting [8]), 3; in test [1] (Total of tumor types, Confirmed HPV-), 1; in test [1] (setting [9]), 6; in test [1] (setting [10]), 2. In addition, the “number of patients with SD” value was determined as 1 in test [1] (setting [3]); 2 in test [1] (setting [4]); 1 in test [1] (setting [5]); 1 in test [1] (setting [6]); 1 in test [1] (setting [7]); 1 in test [1] (Penile, Confirmed HPV+, 400 mg BID). The “number of patients with SD” value in test [1] (Penile, Total (all HPV status), 400 mg BID) is given as 1; in test [1] (setting [8]), 3; in test [1] (setting [9]), 4; in test [1] (setting [10]), 1. The “number of patients with PR/CR” value is recorded as 1^a in test [1] (Anal, Confirmed HPV+, patient received 800 mg BID); 3 in test [1] (Anal, Total (all HPV status), 400 or 800 mg BID); 2^b in test [1] (Anal, Unknown HPV status, 1 out of 2 patients received 800 mg BID); 2 in test [1] (setting [8]); 4 in test [1] (setting [9]); 2 in test [1] (setting [10]). For the same compound, the “number of patients with PR/CR” value is listed as 1 in test [1] (Vaginal, Confirmed HPV+, 400 mg BID) and 1 in test [1] (Vaginal, Total (all HPV status), 400 mg BID).
In the case of `Cn1c(C(=O)Nc2cccc(-c3cccc(NC(=O)c4nc5c(n4C)CCN(CCC46CCC(C(=O)O)(CC4)C6)C5)c3Cl)c2Cl)nc2c1CCN(CCC13CCC(C(=O)O)(CC1)C3)C2` [Compound 30, 4,4′-(((((2,2′-dichloro-[1,1′-bipheiryl]-3,3′-diyl)bis(azanediyl))bis(carbonyl))bis(1-methyl-1,4,6,7-tetrahydro-5H-imidazo[4,5-c]pyridine-2,5-diyl))bis(ethane-2,1-diyl))bis(bicyclo[2.2.1]heptane-1-carboxylic acid)], the “Best Overall Response” value in test [2] (Patient 1, 300 mg BID, Cervical cancer (SCC), p16 positive) is “PR”; in test [2] (Patient 2, 300 mg BID, Nasopharyngeal (SCC), p16 negative) it was “SD”; in test [2] (Patient 3, 300 mg BID, Cervical cancer (SCC), p16 positive), “SD”; in test [2] (Patient 4, 400 mg BID, Cervical cancer (SCC), p16 positive), “PD”; in test [2] (Patient 5, 400 mg BID, Nasopharyngeal (SCC), HPV/p16 status Not determined), “SD”; in test [2] (Patient 6, 400 mg BID, Cervical cancer (SCC), Positive due to HSIL) it was “SD”. In addition, the “Best Overall Response” value is recorded as “PD” in test [2] (Patient 7, 400 mg BID, Acinic cell parotid gland carcinoma, HPV/p16 status Not determined); “PR” in test [2] (Patient 8, 400 mg BID, Cervical cancer (adenosquamous), p16 positive); “PD” in test [2] (Patient 9, 600 mg QD, Cervical cancer (SCC), p16 positive); “PD” in test [2] (Patient 10, 600 mg QD, Cervical cancer (SCC and adenocarcinoma), HPV/p16 status Not determined); “PD” in test [2] (Patient 11, 600 mg BID, Cervical cancer (SCC), p16 positive); “SD” in test [2] (Patient 12, 600 mg BID, Penile cancer (SCC), p16 positive). Further, the “Best Overall Response” value in test [2] (Patient 13, 200 mg BID, Anal canal (SCC), HPV/p16 status Not determined) was “PD”.
